Assay results reported in PubChem BioAssay AID2060483 (Molecular Pharmacology Branch, DTP, NCI, 2025).

Test system: K24384-001-R-PDC complex spheroids, viability
Assay: Anticancer human tumor K24384-001-R-PDC patient-derived pancreatic adenocarcinoma cell line growth inhibition [GQUAD]
Settings: for IC50: curve of first compound; for viability, T/C: stronger effect = lower value
How it was run: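 Tumor cells were grown as complex spheroids with HUVEC endothelial cells and mesenchymal stem cells as stroma. G-quadruplex stabilizers were combined with targeted agents over half-log dilutions from near the clinical Cmax, or from 10 microM.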

[1] = second compound 0.0316 µM, first compound 0.0316 µM
[2] = second compound 0.0316 µM, first compound 0.1 µM
[3] = second compound 0.0316 µM, first compound 0.316 µM
[4] = second compound 0.0316 µM, first compound 1 µM
[5] = second compound 0.0316 µM, first compound 3.16 µM
[6] = second compound 0.0316 µM, first compound 10 µM
[7] = second compound 0.1 µM, first compound 0.0316 µM
[8] = second compound 0.1 µM, first compound 0.1 µM
[9] = second compound 0.1 µM, first compound 0.316 µM
[10] = second compound 0.1 µM, first compound 1 µM
[11] = second compound 0.1 µM, first compound 3.16 µM
[12] = second compound 0.1 µM, first compound 10 µM
[13] = second compound 0.316 µM, first compound 0.0316 µM
[14] = second compound 0.316 µM, first compound 0.1 µM
[15] = second compound 0.316 µM, first compound 0.316 µM
[16] = second compound 0.316 µM, first compound 1 µM
[17] = second compound 0.316 µM, first compound 3.16 µM
[18] = second compound 0.316 µM, first compound 10 µM
[19] = second compound 1 µM, first compound 0.0316 µM
[20] = second compound 1 µM, first compound 0.1 µM
[21] = second compound 1 µM, first compound 0.316 µM
[22] = second compound 1 µM, first compound 1 µM
[23] = second compound 1 µM, first compound 3.16 µM
[24] = second compound 1 µM, first compound 10 µM
[25] = second compound 3.16 µM, first compound 0.0316 µM
[26] = second compound 3.16 µM, first compound 0.1 µM
[27] = second compound 3.16 µM, first compound 0.316 µM
[28] = second compound 3.16 µM, first compound 1 µM
[29] = second compound 3.16 µM, first compound 3.16 µM
[30] = second compound 3.16 µM, first compound 10 µM
[31] = second compound 10 µM, first compound 0.0316 µM
[32] = second compound 10 µM, first compound 0.1 µM
[33] = second compound 10 µM, first compound 0.316 µM
[34] = second compound 10 µM, first compound 1 µM
[35] = second compound 10 µM, first compound 3.16 µM
[36] = second compound 10 µM, first compound 10 µM
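Note: spheroids exposed to compounds for seven days.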

COc1cccc2c1C(=O)c1c(O)c3c(c(O)c1C2=O)CC(O)(C(=O)CO)CC3OC1CC(N)C(O)C(C)O1 (stereo unspecified) + Cc1cnc(CNC(=O)c2c(=O)c3ccc(N4CCCN(C)CC4)nc3n3c2sc2ccccc23)cn1
IC50 (second compound 0.0316 µM): 280 nM | IC50 (second compound 0.1 µM): 167 nM | IC50 (second compound 0.316 µM): 85.2 nM | IC50 (second compound 1 µM): < 31.6 nM | IC50 (second compound 3.16 µM): < 31.6 nM | IC50 (second compound 10 µM): < 31.6 nM | viability, T/C [1]: 74.3% | viability, T/C [2]: 62.1% | viability, T/C [3]: 50.3% | viability, T/C [4]: 17.6% | viability, T/C [5]: 5.43% | viability, T/C [6]: 5.41% | viability, T/C [7]: 71.2% | viability, T/C [8]: 55% | viability, T/C [9]: 42.7% | viability, T/C [10]: 18.8% | viability, T/C [11]: 6.08% | viability, T/C [12]: 5.63% | viability, T/C [13]: 58.2% | viability, T/C [14]: 48% | viability, T/C [15]: 33.3% | viability, T/C [16]: 20.6% | viability, T/C [17]: 4.64% | viability, T/C [18]: 6.62% | viability, T/C [19]: 35.4% | viability, T/C [20]: 46.6% | viability, T/C [21]: 35.1% | viability, T/C [22]: 19.4% | viability, T/C [23]: 2.42% | viability, T/C [24]: 3.74% | viability, T/C [25]: 40% | viability, T/C [26]: 44.3% | viability, T/C [27]: 36.1% | viability, T/C [28]: 18.7% | viability, T/C [29]: 0.26% | viability, T/C [30]: 1.49% | viability, T/C [31]: 33.3% | viability, T/C [32]: 25.9% | viability, T/C [33]: 24.4% | viability, T/C [34]: 0.41% | viability, T/C [35]: 0.26% | viability, T/C [36]: 0.2%

Nc1ccn(C2OC(CO)C(O)C2(F)F)c(=O)n1 (stereo unspecified) + Cc1cnc(CNC(=O)c2c(=O)c3ccc(N4CCCN(C)CC4)nc3n3c2sc2ccccc23)cn1
IC50 (second compound 0.0316 µM): 431 nM | IC50 (second compound 0.1 µM): 396 nM | IC50 (second compound 0.316 µM): < 31.6 nM | IC50 (second compound 1 µM): < 31.6 nM | IC50 (second compound 3.16 µM): < 31.6 nM | IC50 (second compound 10 µM): < 31.6 nM | viability, T/C [1]: 68% | viability, T/C [2]: 64.8% | viability, T/C [3]: 58.6% | viability, T/C [4]: 26.7% | viability, T/C [5]: 28.4% | viability, T/C [6]: 22.3% | viability, T/C [7]: 52.5% | viability, T/C [8]: 54% | viability, T/C [9]: 56.3% | viability, T/C [10]: 32.5% | viability, T/C [11]: 27.2% | viability, T/C [12]: 20.9% | viability, T/C [13]: 45.8% | viability, T/C [14]: 45.6% | viability, T/C [15]: 38.3% | viability, T/C [16]: 36.9% | viability, T/C [17]: 32.2% | viability, T/C [18]: 17.6% | viability, T/C [19]: 40.7% | viability, T/C [20]: 43.5% | viability, T/C [21]: 39.7% | viability, T/C [22]: 41% | viability, T/C [23]: 31.8% | viability, T/C [24]: 16.2% | viability, T/C [25]: 41.3% | viability, T/C [26]: 43.1% | viability, T/C [27]: 32.3% | viability, T/C [28]: 36% | viability, T/C [29]: 33.8% | viability, T/C [30]: 12.2% | viability, T/C [31]: 29.4% | viability, T/C [32]: 19.3% | viability, T/C [33]: 28.6% | viability, T/C [34]: 19.8% | viability, T/C [35]: 0.34% | viability, T/C [36]: 0.27%

O=c1[nH]cc(F)c(=O)[nH]1 + Cc1cnc(CNC(=O)c2c(=O)c3ccc(N4CCCN(C)CC4)nc3n3c2sc2ccccc23)cn1
IC50 (second compound 0.0316 µM): 877 nM | IC50 (second compound 0.1 µM): > 10000 nM | IC50 (second compound 0.316 µM): < 31.6 nM | IC50 (second compound 1 µM): < 31.6 nM | IC50 (second compound 3.16 µM): < 31.6 nM | IC50 (second compound 10 µM): < 31.6 nM | viability, T/C [1]: 78.1% | viability, T/C [2]: 90.8% | viability, T/C [3]: 78.9% | viability, T/C [4]: 45.7% | viability, T/C [5]: 53.1% | viability, T/C [6]: 40% | viability, T/C [7]: 55.8% | viability, T/C [8]: 68.3% | viability, T/C [9]: 69.5% | viability, T/C [10]: 50.9% | viability, T/C [11]: 70.9% | viability, T/C [12]: 50.4% | viability, T/C [13]: 45.7% | viability, T/C [14]: 47.3% | viability, T/C [15]: 51.7% | viability, T/C [16]: 41.8% | viability, T/C [17]: 48.2% | viability, T/C [18]: 47% | viability, T/C [19]: 35.9% | viability, T/C [20]: 46.4% | viability, T/C [21]: 41.9% | viability, T/C [22]: 48.6% | viability, T/C [23]: 53.9% | viability, T/C [24]: 38.2% | viability, T/C [25]: 33.3% | viability, T/C [26]: 37% | viability, T/C [27]: 37.1% | viability, T/C [28]: 49.7% | viability, T/C [29]: 47.1% | viability, T/C [30]: 34% | viability, T/C [31]: 28.3% | viability, T/C [32]: 25.2% | viability, T/C [33]: 30.6% | viability, T/C [34]: 35.4% | viability, T/C [35]: 19.8% | viability, T/C [36]: 23.1%
